Experiments:
Format in all cases: in vivo
Ctenocephalides felis = Ctenocephalides felis in vitro contact test with adult cat fleas; settings: application rate 5 μg/cm^2 (=500 g/ha); after 48 h
Procedure: Ctenocephalides felis—In Vitro Contact Tests with Adult Cat Fleas
(§1) For the coating of the test tubes, 9 mg of active compound are first dissolved in 1 ml of acetone p.a. and then diluted to the desired concentration with acetone p.a. 250 μl of the solution are distributed homogeneously on the inner walls and the base of a 25 ml glass tube by turning and rocking on an orbital shaker (rocking rotation at 30 rpm for 2 h). With 900 ppm of active compound solution and internal surface area 44.7 cm^2, given homogeneous distribution, an area-based dose of 5 μg/cm^2 is achieved.
After the solvent has evaporated off, the tubes are populated with 5-10 adult cat fleas (Ctenocephalides felis), sealed with a perforated plastic lid and incubated in a horizontal position at room temperature and ambient humidity. After 48 h, efficacy is determined. To this end, the tubes are stood upright and the fleas are knocked to the base of the tube. Fleas which remain motionless at the base or move in an uncoordinated manner are considered to be dead or moribund.
100% efficacy means that all the fleas were dead or moribund. 0% efficacy means that no fleas were harmed.

Spodoptera frugiperda = Spodoptera frugiperda spray test; settings: application rate 500 g/ha, after 7 days
Procedure: Spodoptera frugiperda—Spray Test
(§2) Solvent: 78.0 parts by weight of acetone • • 1.5 parts by weight of dimethylformamide
(§3) Emulsifier: alkylaryl polyglycol ether
(§4) To produce a suitable active compound formulation, 1 part by weight of active compound is dissolved with the specified parts by weight of solvent and made up to the desired concentration with water containing an emulsifier concentration of 1000 ppm. To produce further test concentrations, the formulation is diluted with emulsifier-containing water.
Leaf discs of maize (Zea mays) are sprayed with an active compound formulation of the desired concentration and, after drying, populated with caterpillars of the fall armyworm (Spodoptera frugiperda).
After 7 days, the efficacy in % is determined. 100% means that all the caterpillars have been killed; 0% means that no caterpillar has been killed.

Boophilus microplus = Boophilus microplus injection test; settings: application rate 20 μg/animal, after 7 days; for pest or weed control at 0.02 mg: Rhipicephalus microplus, 168 h, read-out: efficacy (laying of fertile eggs)
Procedure: Boophilus microplus—Injection Test
(§5) Solvent: dimethyl sulfoxide
To produce a suitable active compound formulation, 10 mg of active compound are mixed with 0.5 ml of solvent and the concentrate is diluted to the desired concentration with solvent.
1 μl of the active compound solution is injected into the abdomen of 5 engorged adult female cattle ticks (Boophilus microplus). The animals are transferred into dishes and kept in a climate-controlled room.
Efficacy is assessed after 7 days by laying of fertile eggs. Eggs which are not visibly fertile are stored in a climate-controlled cabinet until the larvae hatch after about 42 days. An efficacy of 100% means that none of the ticks has laid any fertile eggs; 0% means that all the eggs are fertile.

Tetranychus urticae = Tetranychus urticae spray test, OP-resistant; settings: after 6 days
Procedure: Tetranychus urticae—Spray Test, OP-Resistant
Solvent: 78.0 Parts by Weight of Acetone • • 1.5 parts by weight of dimethylformamide
as §3, §4
Discs of bean leaves (Phaseolus vulgaris) infested with all stages of the greenhouse red spider mite (Tetranychus urticae) are sprayed with an active compound formulation of the desired concentration.
After 6 days, the efficacy in % is determined. 100% means that all the spider mites have been killed; 0% means that no spider mites have been killed.

Phaedon cochleariae = Phaedon cochleariae spray test; settings: application rate 500 g/ha; after 7 days
Procedure: Phaedon cochleariae—Spray Test
as §2, §3, §4
Discs of Chinese cabbage leaves (Brassica pekinensis) are sprayed with an active compound formulation of the desired concentration and, after drying, populated with larvae of the mustard beetle (Phaedon cochleariae).
After 7 days, the efficacy in % is determined. 100% means that all the beetle larvae have been killed; 0% means that no beetle larvae have been killed.

Rhipicephalus sanguineus = Rhipicephalus sanguineus in vitro contact test with adult brown dog ticks; settings: application rate 5 μg/cm^2 (=500 g/ha); after 48 h
Procedure: Rhipicephalus sanguineus—In Vitro Contact Tests with Adult Brown Dog Ticks
as §1
After the solvent has evaporated off, the tubes are populated with 5-10 adult dog ticks (Rhipicephalus sanguineus), sealed with a perforated plastic lid and incubated in a horizontal position in the dark at room temperature and ambient humidity. After 48 h, efficacy is determined. To this end, the ticks are knocked to the base of the tube and incubated on a hotplate at 45-50° C. for not more than 5 min. Ticks which remain motionless on the base or move in such an uncoordinated manner that they are unable to deliberately avoid the heat by climbing upwards are considered to be dead or moribund.
An efficacy of 100% means that all the ticks were dead or moribund. 0% efficacy means that none of the ticks were harmed.

Lucilia cuprina = Lucilia cuprina test; settings: application rate 100 ppm; L1 larvae; after 2 days
Procedure: as §5
To produce a suitable active compound formulation, 10 mg of active compound are mixed with 0.5 ml of dimethyl sulfoxide, and the concentrate is diluted with water to the desired concentration.
About 20 L1 larvae of the Australian sheep blowfly (Lucilia cuprina) are transferred into a test vessel containing minced horsemeat and the active compound formulation of the desired concentration.
After 2 days, the kill in % is determined. 100% means that all the larvae have been killed; 0% means that no larvae have been killed.

[1] = test system: Anopheles gambiae strain RSPH (homozygot kdr); experiment: Anopheles test (ANPHGB surface treatment); settings: 24 hours after contact, read-out: efficacy (mortality in %)
Procedure: Anopheles Test (ANPHGB Surface Treatment)
Solvent: acetone+2000 ppm rapeseed oil methyl ester (RME)
To produce an appropriate active compound formulation, the active compound is dissolved in the solvent (2 mg/ml). The active compound formulation is pipetted onto a glazed tile and, after it has dried off, adult mosquitoes of the species Anopheles gambiae strain RSPH (homozygot kdr) are placed onto the treated tile. The exposure time is 30 minutes.
24 hours after contact with the treated surface, mortality in % is determined. 100% means that all mosquitoes have been killed; 0% means that none of the mosquitoes have been killed.

Compound: CON(C)CCOc1ccc(COc2cccc3c(Cl)c(Cl)ccc23)cn1 [Example 1]
- efficacy (fleas dead or moribund) (Ctenocephalides felis): 100%
- efficacy (Spodoptera frugiperda): 100%
- efficacy (laying of fertile eggs) (Boophilus microplus): 100%
- efficacy (Tetranychus urticae; application rate 500 g/ha): 100%
- efficacy (Phaedon cochleariae): 100%
- efficacy (ticks dead or moribund) (Rhipicephalus sanguineus): 100%
- efficacy (kill in %) (Lucilia cuprina): 100%

Compound: CON(C)CCOc1ncc(COc2ccc(Cl)c3ccccc23)cc1Cl [Example 7]
- efficacy (Tetranychus urticae; application rate 500 g/ha): 100%

Compound: CCN(CC)CCOc1ccc(COc2cccc3c(Cl)c(Cl)ccc23)cn1 [Example 9]
- efficacy (fleas dead or moribund) (Ctenocephalides felis): 100%
- efficacy (Spodoptera frugiperda): 100%
- efficacy (laying of fertile eggs) (Boophilus microplus): 90%
- efficacy (Phaedon cochleariae): 83%
- efficacy (ticks dead or moribund) (Rhipicephalus sanguineus): 100%

Compound: CON(C)CCOc1ccc(COc2cccc(-c3ccccc3)c2)cn1 [Example 13]
- efficacy (fleas dead or moribund) (Ctenocephalides felis): 100%
- efficacy (laying of fertile eggs) (Boophilus microplus): 100%
- efficacy (Tetranychus urticae; application rate 500 g/ha): 90%
- efficacy (Phaedon cochleariae): 100%
- efficacy (ticks dead or moribund) (Rhipicephalus sanguineus): 100%

Compound: CON(C)CCOc1ccc(COc2cccc3c(Cl)c(Cl)ccc23)nc1F [Example 17, 2-[(6-{[(5,6-dichloro-1-naphthyl)oxy]methyl}-2-fluoropyridin-3-yl)oxy]-N-methoxy-N-methylethanamine]
- mortality at 20 mg/m2 ([1]; application rate 20 mg/m^2, exposure 30 minutes): 80 to 100%
- mortality at 100 mg/m2 ([1]; application rate 100 mg/m^2, exposure 30 minutes): 80 to 100%
- pest or weed control at 0.02 mg (Boophilus microplus): 100%

Compound: CON(C)CCOc1cnc(COc2cccc3c(F)cccc23)c(F)c1 [Example 24]
- efficacy (fleas dead or moribund) (Ctenocephalides felis): 100%
- efficacy (Spodoptera frugiperda): 83%
- efficacy (laying of fertile eggs) (Boophilus microplus): 100%
- efficacy (ticks dead or moribund) (Rhipicephalus sanguineus): 100%

Compound: CN(CC#N)CCOc1cnc(COc2ccc(Cl)c3ccccc23)c(F)c1 [Example 27]
- efficacy (Spodoptera frugiperda): 100%
- efficacy (laying of fertile eggs) (Boophilus microplus): 100%
- efficacy (Tetranychus urticae; application rate 500 g/ha): 90%
- efficacy (Phaedon cochleariae): 100%
- efficacy (ticks dead or moribund) (Rhipicephalus sanguineus): 100%

Compound: CN(CC#N)CCOc1cnc(COc2cccc3c(Cl)c(Cl)ccc23)c(F)c1 [Example 28]
- efficacy (laying of fertile eggs) (Boophilus microplus): 100%
- efficacy (ticks dead or moribund) (Rhipicephalus sanguineus): 100%
- efficacy (kill in %) (Lucilia cuprina): 100%

Compound: CON(C)CCOc1ccc(COc2ccc3oc4ccccc4c3c2)nc1 [Example 31]
- efficacy (Spodoptera frugiperda): 100%
- efficacy (laying of fertile eggs) (Boophilus microplus): 100%
- efficacy (Phaedon cochleariae): 100%
- efficacy (ticks dead or moribund) (Rhipicephalus sanguineus): 100%
- efficacy (kill in %) (Lucilia cuprina): 100%

Compound: CCN(CC)CCOc1cnc(COc2cccc3c(Cl)c(Cl)ccc23)c(F)c1 [Example 32, 2-[(6-{[(5,6-dichloro-1-naphthyl)oxy]methyl}-5-fluoropyridin-3-yl)oxy]-N,N-diethylethanamine]
- efficacy (fleas dead or moribund) (Ctenocephalides felis): 100%
- pest or weed control at 500 g/ha (Spodoptera frugiperda; Spodoptera frugiperda, 168 h, read-out: efficacy): 100%
- pest or weed control at 0.02 mg (Boophilus microplus): 100%
- efficacy (Tetranychus urticae; application rate 500 g/ha): 90%

Compound: CN(CCOc1cnc(COc2ccc3oc4ccccc4c3c2)c(F)c1)C(C)(C)C [Example 34]
- efficacy (Spodoptera frugiperda): 100%
- efficacy (laying of fertile eggs) (Boophilus microplus): 80%
- efficacy (Tetranychus urticae; application rate 500 g/ha): 90%
- efficacy (Phaedon cochleariae): 100%

Compound: CN(CCOc1cnc(COc2cccc3c(Cl)c(Cl)ccc23)c(F)c1)C(C)(C)C [Example 37, N-{2-[(6-{[(5,6-dichloro-1-naphthyl)oxy]methyl}-5-fluoropyridin-3-yl)oxy]ethyl}-N,2-dimethylpropan-2-aminium chloride]
- efficacy (fleas dead or moribund) (Ctenocephalides felis): 100%
- efficacy (Spodoptera frugiperda): 100%
- efficacy (laying of fertile eggs) (Boophilus microplus): 80%
- efficacy (Phaedon cochleariae): 100%

Compound: Fc1cc(OCCN2CCCCC2)cnc1COc1ccc2oc3ccccc3c2c1 [Example 41]
- efficacy (Tetranychus urticae; application rate 500 g/ha): 90%

Compound: CC(C)N(C)CCOc1cnc(COc2cccc3c(Cl)c(Cl)ccc23)c(F)c1 [Example 44]
- efficacy (fleas dead or moribund) (Ctenocephalides felis): 100%
- efficacy (Spodoptera frugiperda): 100%
- efficacy (laying of fertile eggs) (Boophilus microplus): 100%
- efficacy (Tetranychus urticae; application rate 100 g/ha): 90%
- efficacy (Phaedon cochleariae): 100%

Compound: CON(C)CCOc1cnc(COc2ccc(F)c(-c3cccc(Cl)c3)c2)c(F)c1 [Example 49]
- efficacy (fleas dead or moribund) (Ctenocephalides felis): 100%
- efficacy (Spodoptera frugiperda): 100%
- efficacy (laying of fertile eggs) (Boophilus microplus): 100%
- efficacy (Tetranychus urticae; application rate 500 g/ha): 100%
- efficacy (Phaedon cochleariae): 100%
- efficacy (ticks dead or moribund) (Rhipicephalus sanguineus): 100%
- efficacy (kill in %) (Lucilia cuprina): 100%

Compound: CN(CCOc1cnc(COc2ccc(F)c(-c3cccc(OC(F)(F)F)c3)c2)c(F)c1)C(C)(C)C [Example 51]
- efficacy (Spodoptera frugiperda): 100%
- efficacy (Tetranychus urticae; application rate 500 g/ha): 100%
- efficacy (Phaedon cochleariae): 83%

Compound: CON(C)CCOc1cnc(COc2ccc(Cl)c(-c3cccc(Cl)c3)c2)c(F)c1 [Example 56]
- efficacy (fleas dead or moribund) (Ctenocephalides felis): 100%
- efficacy (Spodoptera frugiperda): 100%
- efficacy (laying of fertile eggs) (Boophilus microplus): 100%
- efficacy (Tetranychus urticae; application rate 500 g/ha): 100%
- efficacy (Phaedon cochleariae): 100%
- efficacy (ticks dead or moribund) (Rhipicephalus sanguineus): 100%
- efficacy (kill in %) (Lucilia cuprina): 100%

Compound: CON(C)CCOc1ccc(COc2cccc(-c3cccc(OC(F)(F)F)c3)c2)nc1 [Example 64]
- efficacy (fleas dead or moribund) (Ctenocephalides felis): 100%
- efficacy (Spodoptera frugiperda): 83%
- efficacy (laying of fertile eggs) (Boophilus microplus): 100%
- efficacy (Tetranychus urticae; application rate 500 g/ha): 90%
- efficacy (Phaedon cochleariae): 100%
- efficacy (ticks dead or moribund) (Rhipicephalus sanguineus): 100%

Compound: CON(C)CCOc1ccc(COc2ccc(F)c(-c3cccc(Cl)c3)c2)nc1 [Example 65]
- efficacy (fleas dead or moribund) (Ctenocephalides felis): 100%
- efficacy (Spodoptera frugiperda): 100%
- efficacy (laying of fertile eggs) (Boophilus microplus): 100%
- efficacy (Tetranychus urticae; application rate 500 g/ha): 100%
- efficacy (ticks dead or moribund) (Rhipicephalus sanguineus): 100%
- efficacy (kill in %) (Lucilia cuprina): 90%

Compound: CON(C)CCOc1cnc(COc2cccc(-c3ccccc3)c2)c(F)c1 [Example 70]
- efficacy (fleas dead or moribund) (Ctenocephalides felis): 100%
- efficacy (laying of fertile eggs) (Boophilus microplus): 100%
- efficacy (Tetranychus urticae; application rate 500 g/ha): 90%
- efficacy (Phaedon cochleariae): 100%
- efficacy (ticks dead or moribund) (Rhipicephalus sanguineus): 100%
- efficacy (kill in %) (Lucilia cuprina): 100%

Compound: CON(C)CCOc1ccc(COc2ccc(Cl)c(OC(F)(F)F)c2)nc1 [Example 73]
- efficacy (laying of fertile eggs) (Boophilus microplus): 80%
- efficacy (Tetranychus urticae; application rate 500 g/ha): 100%

Compound: CON(C)CCOc1cnc(COc2ccc(Cl)c(I)c2)c(F)c1 [Example 76]
- efficacy (fleas dead or moribund) (Ctenocephalides felis): 100%
- efficacy (laying of fertile eggs) (Boophilus microplus): 100%
- efficacy (Tetranychus urticae; application rate 100 g/ha): 90%
- efficacy (Phaedon cochleariae): 100%
- efficacy (ticks dead or moribund) (Rhipicephalus sanguineus): 100%

Compound: CON(C)CCOc1cnc(COc2cccc(-c3cccc(Cl)c3)c2)c(F)c1 [Example 80]
- efficacy (Spodoptera frugiperda): 83%
- efficacy (laying of fertile eggs) (Boophilus microplus): 100%
- efficacy (Phaedon cochleariae): 100%
- efficacy (ticks dead or moribund) (Rhipicephalus sanguineus): 100%
- efficacy (kill in %) (Lucilia cuprina): 100%

Compound: CON(C)CCOc1cnc(COc2ccc(F)c(Br)c2)c(F)c1 [Example 83]
- efficacy (laying of fertile eggs) (Boophilus microplus): 80%
- efficacy (Tetranychus urticae; application rate 500 g/ha): 100%
